Results published in the NIST ThermoML archive (doi:10.1016/j.jct.2019.07.011).

Test: xn = mol fraction of the nth substance listed
Conditions: Gas, Frequency=0.002 MHz, Spherical resonator

[He] [helium] + C
Conditions	speed of sound [m/s]
273.16 K, 491.07 kPa, x2 = 0.8999	449.8
273.16 K, 495.33 kPa, x2 = 0.95	438.87
273.16 K, 993.4 kPa, x2 = 0.8999	448.5
273.16 K, 1010.2 kPa, x2 = 0.95	437.11
273.16 K, 1705.3 kPa, x2 = 0.8999	446.82
273.16 K, 2010.6 kPa, x2 = 0.95	433.9
273.16 K, 2484.9 kPa, x2 = 0.8999	445.25
273.16 K, 2988.8 kPa, x2 = 0.95	431.21
273.16 K, 3490.4 kPa, x2 = 0.8999	443.67
273.16 K, 4423.3 kPa, x2 = 0.95	428.28
273.16 K, 4498.4 kPa, x2 = 0.8999	442.69
273.16 K, 5505.7 kPa, x2 = 0.8999	442.38
273.16 K, 5984.1 kPa, x2 = 0.95	426.79
273.16 K, 6475.9 kPa, x2 = 0.95	426.75
273.16 K, 6493 kPa, x2 = 0.8999	442.8
273.16 K, 6972.4 kPa, x2 = 0.95	426.96
273.16 K, 7508.1 kPa, x2 = 0.8999	444.07
273.16 K, 7524.3 kPa, x2 = 0.95	427.48
273.16 K, 8481.6 kPa, x2 = 0.8999	446.2
273.16 K, 8589.5 kPa, x2 = 0.95	429.44
273.16 K, 9521.1 kPa, x2 = 0.8999	449.34
273.16 K, 9523.8 kPa, x2 = 0.95	432.26
273.16 K, 10522 kPa, x2 = 0.8999	453.42
273.16 K, 10523 kPa, x2 = 0.95	436.5
273.16 K, 11506 kPa, x2 = 0.95	441.94
273.16 K, 11530 kPa, x2 = 0.8999	458.54
273.16 K, 12532 kPa, x2 = 0.95	449.01
273.16 K, 12638 kPa, x2 = 0.8999	465.33
273.16 K, 13317 kPa, x2 = 0.95	455.32
273.16 K, 13633 kPa, x2 = 0.8999	472.45
273.16 K, 14040 kPa, x2 = 0.95	461.81
273.16 K, 14537 kPa, x2 = 0.8999	479.7
273.16 K, 14722 kPa, x2 = 0.95	468.48
273.16 K, 15299 kPa, x2 = 0.95	474.53
273.16 K, 15351 kPa, x2 = 0.8999	486.78
273.16 K, 15853 kPa, x2 = 0.95	480.65
273.16 K, 16041 kPa, x2 = 0.8999	493.25
273.16 K, 16516 kPa, x2 = 0.95	488.34
273.16 K, 16537 kPa, x2 = 0.8999	498.12
273.16 K, 17032 kPa, x2 = 0.95	494.58
273.16 K, 17048 kPa, x2 = 0.8999	503.31
273.16 K, 17533 kPa, x2 = 0.95	500.83
273.16 K, 17548 kPa, x2 = 0.8999	508.55
273.16 K, 18009 kPa, x2 = 0.95	506.92
273.16 K, 18059 kPa, x2 = 0.8999	514.05
273.16 K, 18537 kPa, x2 = 0.8999	519.32
273.16 K, 18552 kPa, x2 = 0.95	514.01
273.16 K, 19088 kPa, x2 = 0.95	521.16
273.16 K, 19117 kPa, x2 = 0.8999	525.88
273.16 K, 19871 kPa, x2 = 0.95	531.76
300 K, 482.33 kPa, x2 = 0.8999	469.85
300 K, 483.64 kPa, x2 = 0.95	458.75
300 K, 985.69 kPa, x2 = 0.95	457.69
300 K, 1001 kPa, x2 = 0.8999	469.18
300 K, 1985.5 kPa, x2 = 0.8999	468.06
300 K, 1996 kPa, x2 = 0.95	455.8
300 K, 2984.6 kPa, x2 = 0.8999	467.34
300 K, 3212.7 kPa, x2 = 0.95	454.1
300 K, 4475.2 kPa, x2 = 0.95	453.09
300 K, 4487.3 kPa, x2 = 0.8999	467.1
300 K, 5490.1 kPa, x2 = 0.8999	467.58
300 K, 5513.3 kPa, x2 = 0.95	452.95
300 K, 6460.8 kPa, x2 = 0.95	453.38
300 K, 6494.8 kPa, x2 = 0.8999	468.59
300 K, 7011.9 kPa, x2 = 0.95	453.9
300 K, 7501.4 kPa, x2 = 0.8999	470.2
300 K, 7543 kPa, x2 = 0.95	454.6
300 K, 8430.8 kPa, x2 = 0.95	456.23
300 K, 9026.4 kPa, x2 = 0.8999	473.76
300 K, 9344.2 kPa, x2 = 0.95	458.51
300 K, 10504 kPa, x2 = 0.8999	478.72
300 K, 10534 kPa, x2 = 0.95	462.72
300 K, 11500 kPa, x2 = 0.95	466.77
300 K, 11505 kPa, x2 = 0.8999	482.86
300 K, 12492 kPa, x2 = 0.8999	487.56
300 K, 12507 kPa, x2 = 0.95	471.79
300 K, 13305 kPa, x2 = 0.95	476.35
300 K, 13505 kPa, x2 = 0.8999	493.08
300 K, 13998 kPa, x2 = 0.95	480.72
300 K, 14495 kPa, x2 = 0.8999	499.05
300 K, 14699 kPa, x2 = 0.95	485.51
300 K, 15302 kPa, x2 = 0.95	489.92
300 K, 15515 kPa, x2 = 0.8999	505.8
300 K, 15902 kPa, x2 = 0.95	494.56
300 K, 16490 kPa, x2 = 0.8999	512.81
300 K, 16491 kPa, x2 = 0.95	499.36
300 K, 16994 kPa, x2 = 0.8999	516.63
300 K, 17005 kPa, x2 = 0.95	503.74
300 K, 17511 kPa, x2 = 0.8999	520.69
300 K, 17525 kPa, x2 = 0.95	508.33
300 K, 18012 kPa, x2 = 0.8999	524.75
300 K, 18013 kPa, x2 = 0.95	512.78
300 K, 18515 kPa, x2 = 0.95	517.49
300 K, 18523 kPa, x2 = 0.8999	529
300 K, 19011 kPa, x2 = 0.95	522.29
300 K, 19043 kPa, x2 = 0.8999	533.45
300 K, 19447 kPa, x2 = 0.95	526.6
300 K, 19955 kPa, x2 = 0.8999	541.5
325 K, 473.9 kPa, x2 = 0.8999	487
325 K, 479.57 kPa, x2 = 0.95	476.04
325 K, 976.85 kPa, x2 = 0.8999	486.84
325 K, 979.32 kPa, x2 = 0.95	475.45
325 K, 1477.5 kPa, x2 = 0.8999	486.66
325 K, 1677.4 kPa, x2 = 0.95	474.76
325 K, 2455.5 kPa, x2 = 0.95	474.19
325 K, 2481.6 kPa, x2 = 0.8999	486.49
325 K, 3481.4 kPa, x2 = 0.95	473.83
325 K, 3486.4 kPa, x2 = 0.8999	486.7
325 K, 4485.5 kPa, x2 = 0.8999	487.28
325 K, 4486.1 kPa, x2 = 0.95	473.85
325 K, 5487.2 kPa, x2 = 0.8999	488.28
